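Five compound concentrations were applied to cells in 96-well plates for 48 hours; endpoints were derived by simple linear interpolation of the resulting dose-response curve. GI50: concentration for 50% inhibition of growth.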 Activity calls are given as the source filed them. No stated cut-off is given here; in the data, active = GI50 up to about 1.1 µM and inactive = higher.
Assays:
Assay in all cases: DTP human tumour cell line panel, 48 h
[1] = tested on: KM-20L2
[2] = tested on: XF498
[3] = tested on: DMS-114
[4] = tested on: M19-MEL
[5] = tested on: DLD-1
[6] = tested on: DMS-273
[7] = tested on: HOP-18
[8] = tested on: SNB-78
[9] = tested on: RXF 631

Measured: GI50

COC(=O)c1onc(-c2c(OC)cc(OC)cc2OC)c1C(=O)OC
inactive: [1] > 100 µM | [2] > 100 µM | [3] > 100 µM | [4] > 100 µM | [5] > 100 µM | [6] > 100 µM | [7] > 100 µM | [8] > 100 µM

COc1cc2oc(-c3ccc(O)cc3)cc(=O)c2c(O)c1C1OC(CO)C(O)C(O)C1O (stereo not drawn)
inactive: [1] > 100 µM | [2] > 100 µM | [3] > 100 µM | [4] > 100 µM | [5] > 100 µM | [6] 62.4 µM | [7] > 100 µM | [8] > 100 µM

COc1ccc(C(=O)N2c3ccccc3N(C)n3cccc3C2CC(=O)O)cc1 (stereo not drawn)
inactive: [1] > 100 µM | [3] > 100 µM | [4] > 100 µM | [5] > 100 µM | [6] > 100 µM | [8] > 100 µM

Nc1c(-c2nc3ccccc3s2)[n+]([O-])c2ccccc2[n+]1[O-]
inactive: [1] 48.2 µM | [3] 34.2 µM | [4] 28 µM | [5] 33 µM | [7] 23.5 µM | [8] 63 µM

O=C(O)CCC(=O)N1C/C(=C\c2ccccc2)C(=O)/C(=C/c2ccccc2)C1
inactive: [1] 2.92 µM | [2] 2.7 µM | [3] 2.18 µM | [4] 1.75 µM | [9] 3.66 µM | [5] 2.32 µM | [6] 2.16 µM | [7] 5.55 µM | [8] 7.24 µM

CCOC(=N)CC(=O)Nc1ccc(Cl)cc1
inactive: [1] > 100 µM | [2] > 100 µM | [4] > 100 µM | [5] > 100 µM | [6] > 100 µM | [7] 1.73 µM | [8] > 100 µM

O=C1C2c3[nH]c4ccccc4c3[C@@H]3CCCCCCCCCCC3C2C(=O)N1c1ccccc1 (stereo partly drawn)
inactive: [3] 16.9 µM | [4] 22.2 µM | [9] 12.6 µM | [5] 24.5 µM | [6] 27.3 µM | [7] 41.5 µM | [8] 8.53 µM

COc1cc(C2C(Cl)C(=O)N2NC(=O)Cc2ccccc2)cc(Br)c1O (stereo not drawn)
inactive: [1] > 100 µM | [2] > 100 µM | [3] 45 µM | [4] > 100 µM | [5] 86.9 µM | [6] > 100 µM | [7] 71.6 µM | [8] > 100 µM

CC(C)c1ccc(/C=C(\NC(=O)c2ccccc2)c2nc3ccccc3[nH]2)cc1
inactive: [1] 58.1 µM | [2] 55.3 µM | [3] 25.3 µM | [4] 33.3 µM | [9] 23.6 µM | [5] 30.3 µM | [6] 37.9 µM | [7] 26.4 µM | [8] 42.9 µM

CCc1ccc(/N=C\c2cc(OC)c(OC)c(OC)c2)cc1
inactive: [1] > 100 µM | [2] > 100 µM | [3] 40.4 µM | [4] > 100 µM | [5] 77.8 µM | [6] > 100 µM | [7] > 100 µM | [8] > 100 µM

COc1ccc(-c2nnc(-c3c(C)n(C)n(-c4ccccc4)c3=O)o2)cc1
inactive: [1] > 100 µM | [2] > 100 µM | [3] > 100 µM | [4] > 100 µM | [5] > 100 µM | [6] > 100 µM | [7] > 100 µM | [8] 68.7 µM

C/C(=N\NC(=N)N)C(CN(C)C)C(c1ccccc1)c1c(O)c2ccccc2oc1=O (stereo not drawn)
inactive: [1] > 100 µM | [2] > 100 µM | [3] > 100 µM | [4] > 100 µM | [5] > 100 µM | [6] > 100 µM | [7] > 100 µM | [8] > 100 µM

CCC1CCc2c(OC)ccc(OCC(=O)O)c2C1=O (stereo not drawn)
inactive: [2] > 100 µM | [3] > 100 µM | [4] > 100 µM | [5] > 100 µM | [6] > 100 µM | [8] > 100 µM

BrCC[N+]12CCCN1CCC2
inactive: [1] 20.6 µM | [4] 16.9 µM | [9] 21.1 µM | [5] 4.38 µM | [6] 18.7 µM | [7] 8.73 µM | [8] 16.2 µM

Cc1cc2c(C)nn(Cc3ccccc3)c2c(C(=O)O)c1C
inactive: [1] > 100 µM | [2] > 100 µM | [4] > 100 µM | [9] > 100 µM | [6] > 100 µM | [7] > 100 µM | [8] > 100 µM

CCOC(=O)CC1=N/C(=N/c2cc(Cl)ccc2Cl)SC1
inactive: [1] > 100 µM | [2] > 100 µM | [3] 38.5 µM | [4] > 100 µM | [5] 91.8 µM | [6] > 100 µM | [7] > 100 µM | [8] > 100 µM

Cc1cc2cc(Cl)ccc2nc1C(=O)c1ccccc1
inactive: [1] > 100 µM | [2] > 100 µM | [3] > 100 µM | [4] > 100 µM | [9] > 100 µM | [5] > 100 µM | [6] > 100 µM | [7] > 100 µM | [8] > 100 µM

CCOC(=O)Nn1c(C)cc(C(=O)OC)c1C
inactive: [1] > 100 µM | [2] > 100 µM | [3] > 100 µM | [4] > 100 µM | [5] > 100 µM | [6] > 100 µM | [8] > 100 µM

CC(=O)Nc1ccc(/C=c2\sc3nnc(-c4cccnc4)n3c2=O)cc1
inactive: [1] 17.5 µM | [3] 17.9 µM | [4] 18.1 µM | [9] 18.1 µM | [5] 17.3 µM | [6] 25.1 µM | [7] 19.1 µM | [8] 34.4 µM

CC1=C(C(=O)Nc2cccc(Cl)c2)C(c2ccc([N+](=O)[O-])cc2)C(C(=O)Nc2cccc(Cl)c2)=C(C)N1
inactive: [1] 20.2 µM | [3] 21.2 µM | [9] 19.8 µM | [5] 21.8 µM | [7] 16.5 µM | [8] 36.1 µM

C[N+]1(C)C/C(=C\c2ccncc2)C(=O)/C(=C/c2ccncc2)C1
inactive: [1] > 100 µM | [3] > 100 µM | [4] > 100 µM | [5] > 100 µM | [6] > 100 µM | [7] > 100 µM | [8] > 100 µM

O=C(Nc1ccc(Cl)cc1C(=O)O)c1ccc([N+](=O)[O-])cc1
inactive: [1] 21.8 µM | [2] 24.9 µM | [3] 9.08 µM | [4] 21.4 µM | [9] 30.1 µM | [5] 7.06 µM | [6] 27.7 µM | [8] 22.4 µM

COc1ccc(C2=Nc3ccccc3NC(=O)C2)cc1
inactive: [1] 55.7 µM | [2] 20.1 µM | [3] 20.7 µM | [4] 48.3 µM | [9] > 100 µM | [5] 62.8 µM | [6] 27.4 µM | [7] > 100 µM | [8] 25.2 µM

COc1ccc(/C=C/C(=O)c2c(-c3ccccc3)nn(C)c(=O)c2N2CCCCC2)cc1
inactive: [1] 14.3 µM | [3] 14.6 µM | [4] 25.3 µM | [9] 23.5 µM | [5] 16.1 µM | [6] 15.9 µM | [7] 20.1 µM

Cc1ccc(NC(=O)C(=O)C2C(=O)NC(=O)NC2=O)cc1C
inactive: [1] > 100 µM | [2] > 100 µM | [4] > 100 µM | [5] > 100 µM | [6] > 100 µM | [7] > 100 µM | [8] > 100 µM

CC(=O)OC1[C@H]2c3cc4c(cc3CN3CCC(=C[C@@H]1O)C23)OCO4 (stereo partly drawn)
inactive: [1] 77.8 µM | [4] > 100 µM | [5] > 100 µM | [6] > 100 µM | [8] 54.2 µM
